Tests used:
Conditions in all cases: 72 h
Calu-3 [1] = assay: cell viability relative to DMSO; higher = less toxic
HepG2 [2] = assay: as above
U2OS [3] = assay: as above
Vero E6 [4] = assay: as above
Caco-2 [5] = assay: as above
Calu-3 [6] = assay: relative viability EC50 (midpoint between 100% and the lowest measured viability); higher = less toxic
HepG2 [7] = assay: as above
U2OS [8] = assay: as above
Vero E6 [9] = assay: as above
Caco-2 [10] = assay: as above
Calu-3 [11] = assay: drug sensitivity score (DSS) for viability; higher = more toxic; extreme values may be limits of the assay
HepG2 [12] = assay: as above
U2OS [13] = assay: as above
Vero E6 [14] = assay: as above
Caco-2 [15] = assay: as above

| SMILES | cell viability (Calu-3 [1]; 1 nM) [%] | cell viability (Calu-3 [1]; 10 nM) [%] | cell viability (Calu-3 [1]; 100 nM) [%] | cell viability (Calu-3 [1]; 1000 nM) [%] | cell viability (Calu-3 [1]; 10000 nM) [%] | cell viability (HepG2 [2]; 1 nM) [%] | cell viability (HepG2 [2]; 10 nM) [%] | cell viability (HepG2 [2]; 100 nM) [%] | cell viability (HepG2 [2]; 1000 nM) [%] | cell viability (HepG2 [2]; 10000 nM) [%] | cell viability (U2OS [3]; 1 nM) [%] | cell viability (U2OS [3]; 10 nM) [%] | cell viability (U2OS [3]; 100 nM) [%] | cell viability (U2OS [3]; 1000 nM) [%] | cell viability (U2OS [3]; 10000 nM) [%] | cell viability (Vero E6 [4]; 1 nM) [%] | cell viability (Vero E6 [4]; 10 nM) [%] | cell viability (Vero E6 [4]; 100 nM) [%] | cell viability (Vero E6 [4]; 1000 nM) [%] | cell viability (Vero E6 [4]; 10000 nM) [%] | cell viability (Caco-2 [5]; 1 nM) [%] | cell viability (Caco-2 [5]; 10 nM) [%] | cell viability (Caco-2 [5]; 100 nM) [%] | cell viability (Caco-2 [5]; 1000 nM) [%] | cell viability (Caco-2 [5]; 10000 nM) [%] | relative viability EC50 (Calu-3 [6]) [µM] | relative viability EC50 (HepG2 [7]) [µM] | relative viability EC50 (U2OS [8]) [µM] | relative viability EC50 (Vero E6 [9]) [µM] | relative viability EC50 (Caco-2 [10]) [µM] | drug sensitivity score (Calu-3 [11]) | drug sensitivity score (HepG2 [12]) | drug sensitivity score (U2OS [13]) | drug sensitivity score (Vero E6 [14]) | drug sensitivity score (Caco-2 [15]) |
| --- | --- | --- | --- | --- | --- | --- | --- | --- | --- | --- | --- | --- | --- | --- | --- | --- | --- | --- | --- | --- | --- | --- | --- | --- | --- | --- | --- | --- | --- | --- | --- | --- | --- | --- | --- |
| O=C1c2cccc(O)c2C(=O)c2c(O)cccc21 [dantron] | 103 | 97.5 | 96.1 | 98.6 | 88.4 | 102 | 105 | 105 | 97.9 | 93.8 | 94.3 | 98.4 | 97.7 | 103 | 99.8 | 98.5 | 89.2 | 100 | 93.2 | 83.5 | 107 | 92.6 | 88.7 | 91.2 | 101 | > 10 | > 10 | > 10 | > 10 | > 10 | 0.1 | 0 | 0 | 0.2 | 0 |
| CN(C)CC(=O)Nc1ccc2[nH]c(=O)c3ccccc3c2c1 [PJ-34] | 95.5 | 100 | 96.2 | 104 | 98.5 | 97.5 | 99.3 | 97.8 | 103 | 98.6 | 92.2 | 102 | 94 | 94.6 | 95.6 | 96.7 | 93.2 | 101 | 100 | 102 | 91.5 | 101 | 99.3 | 97.2 | 104 | > 10 | > 10 | > 10 | > 10 | > 10 | 0 | 0 | 0 | 0 | 0 |
| Oc1ccc(O)cc1 [hydroquinone] | 90.5 | 90 | 93.7 | 100 | 113 | 106 | 92.4 | 94.7 | 100 | 84.6 | 95.2 | 91 | 95.4 | 89 | 117 | 93.3 | 100 | 94.8 | 105 | 111 | 100 | 97.6 | 94.2 | 104 | 106 | > 10 | > 10 | > 10 | > 10 | > 10 | 0 | 0.3 | 0 | 0 | 0 |
| CCC(C)(C)C(=O)C(=O)N1CCC[C@H]1C(=O)OCCCc1cccnc1 [GPI-1046] | 101 | 88.9 | 106 | 103 | 113 | 86.9 | 98.6 | 108 | 90.7 | 91.4 | 97.6 | 95.3 | 91.7 | 102 | 104 | 100 | 96.4 | 100 | 91.6 | 96.9 | 96.5 | 96 | 89.5 | 105 | 105 | > 10 | > 10 | > 10 | > 10 | > 10 | 0 | 0.6 | 0 | 0 | 0 |
| Nc1ncnc2c1c(COc1cccc(Cl)c1)nn2C1CCOCC1 | 95.4 | 104 | 95.3 | 97.2 | 84.2 | 91.3 | 89.1 | 109 | 91.8 | 99.4 | 92.5 | 98.1 | 94.9 | 96.9 | 96.4 | 96.5 | 96.5 | 97.6 | 89.3 | 112 | 89.2 | 99.2 | 99.7 | 100 | 91.3 | > 10 | > 10 | > 10 | > 10 | > 10 | 0.6 | 0 | 0 | 0 | 0 |
| O=C(O)[C@H](Cc1ccccc1)NCc1ccc(Cl)cc1 | 92.8 | 91.5 | 93.8 | 98 | 92.5 | 95.6 | 101 | 97.1 | 93.3 | 103 | 95.2 | 98.7 | 91 | 98.3 | 94.5 | 99.8 | 102 | 92.9 | 99.4 | 101 | 107 | 99.6 | 106 | 101 | 102 | > 10 | > 10 | > 10 | > 10 | > 10 | 0 | 0 | 0 | 0 | 0 |
| Cc1nccc2c1[nH]c1ccccc12 [harmane] | 106 | 97.7 | 101 | 91.8 | 103 | 92.9 | 96.2 | 99.6 | 99.1 | 105 | 101 | 98.8 | 100 | 97.5 | 101 | 97.2 | 102 | 94.3 | 96.6 | 98.2 | 95.1 | 101 | 105 | 102 | 93 | > 10 | > 10 | > 10 | > 10 | > 10 | 0 | 0 | 0 | 0 | 0 |
| O=C(NO)c1cnc(N2CCN(S(=O)(=O)c3ccc4ccccc4c3)CC2)nc1 | 107 | 103 | 98.9 | 75.5 | 24.1 | 107 | 96.8 | 91.5 | 65.6 | 11.7 | 97.9 | 98.4 | 94.5 | 69.3 | 4.2 | 102 | 97.5 | 100 | 79.2 | -0.1 | 104 | 128 | 84.7 | 51.8 | 4.3 | 1.34 | 1.29 | 1.4 | 1.71 | 0.894 | 7.7 | 8.9 | 9.4 | 8.8 | 11.2 |
| CCC(CC)O[C@@H]1C=C(C(=O)O)C[C@H](N)[C@H]1NC(C)=O [oseltamivir-carboxylate] | 98.9 | 98.6 | 98.6 | 98.2 | 103 | 104 | 99.3 | 108 | 95.5 | 115 | 100 | 99.8 | 97.2 | 102 | 105 | 98.4 | 99.7 | 98.1 | 95.9 | 104 | 89.8 | 96.8 | 99.7 | 99.5 | 101 | > 10 | > 10 | > 10 | > 10 | > 10 | 0 | 0 | 0 | 0 | 0 |
| Cc1occc(=O)c1[O-].Cc1occc(=O)c1[O-].[O]=[V+2] [bis(maltolato)oxovanadium(IV)] | 100 | 103 | 98 | 92.4 | 86.3 | 110 | 104 | 100 | 108 | 93 | 98.4 | 91.3 | 102 | 94.5 | 88.5 | 94 | 98.2 | 92.7 | 105 | 103 | 101 | 96 | 95.4 | 95.4 | 90.4 | > 10 | > 10 | > 10 | > 10 | > 10 | 0.3 | 0 | 0 | 0 | 0 |
| CN(C)c1cc(CNCC(C)(C)C)c(O)c2c1C[C@H]1C[C@H]3[C@H](N(C)C)C(O)=C(C(N)=O)C(=O)[C@@]3(O)C(O)=C1C2=O [omadacycline] | 108 | 91.4 | 102 | 88.9 | 92.4 | 101 | 90.9 | 96.9 | 105 | 87 | 102 | 103 | 99.9 | 102 | 98.2 | 96.3 | 101 | 97.1 | 98.8 | 97.3 | 107 | 95.1 | 100 | 97.4 | 96.4 | > 10 | > 10 | > 10 | > 10 | > 10 | 0.3 | 0 | 0 | 0 | 0 |
| C[C@@H](N)Cc1c[nH]c2ccc(O)cc12 [alpha-methylserotonin] | 89.6 | 99.1 | 95.3 | 92.9 | 91.1 | 105 | 102 | 100 | 96.9 | 105 | 99 | 102 | 99.8 | 97.4 | 107 | 91.1 | 94.5 | 94.4 | 90.3 | 104 | 96.1 | 93 | 88 | 92.8 | 101 | > 10 | > 10 | > 10 | > 10 | > 10 | 0 | 0 | 0 | 0 | 0 |
| CCC(=O)Nc1cccc(Oc2nc(Nc3ccc(N4CCN(C)CC4)cc3OC)ncc2Cl)c1 [WZ4003] | 97 | 97.7 | 94.8 | 96.3 | 82.5 | 100 | 94.3 | 102 | 90.9 | 104 | 97.3 | 103 | 103 | 105 | 102 | 101 | 100 | 102 | 96.2 | 98.6 | 99.3 | 105 | 102 | 99.5 | 89.3 | > 10 | > 10 | > 10 | > 10 | > 10 | 0.7 | 0 | 0 | 0 | 0 |
| O=C1CCCCCCCCCCCCCCO1 [oxacyclohexadecan-2-one] | 93.2 | 99.1 | 91.9 | 90 | 90.7 | 109 | 93.8 | 105 | 86 | 97.7 | 101 | 98.9 | 95.8 | 101 | 98 | 102 | 106 | 102 | 88.8 | 102 | 103 | 95.1 | 90 | 92.8 | 102 | > 10 | > 10 | > 10 | > 10 | > 10 | 0 | 0 | 0 | 0 | 0 |

Source: the supplement of paper PMC13380429
